# Literature values as cited in US8993316B2, “Methods and compositions for gene therapy and GHRH therapy” (priority 2011, dated 2015).
# What was measured:
# [1] = not given; remark: listed apart in the source
Compound,rough half-life (in vivo) [h],therapeutic effect duration (long acting) [h],half-life after injection [1]
"COc1cc(CC(C)N)c(OC)cc1I (stereo not drawn) [DOI, 2,5-dimethoxy-4-iodoamphetamine]",12 to 15,≥ 30,–
"GHRH: growth hormone releasing hormone, a peptide hormone",–,–,roughly 8 minutes
